# Laboratory results published in patent publication US20130310256A1, “HERBICIDAL COMPOSITIONS COMPRISING 4-AMINO-3-CHLORO-5-FLUORO-6-(4-CHLORO-2-FLUORO-3-METHOXYPHENYL) PYRIDINE-2-CARBOXYLIC ACID OR A DERIVATIVE THEREOF AND VLCFA AND LIPID SYNTHESIS INHIBITING HERBICIDES” (DOW AGROSCIENCES LLC, priority 2008, published 2013).
# Experiments:
# ECHCO = assay: Example I: postemergence foliar-applied weed control, greenhouse; format: in vivo, Echinochloa colona (L.) Link (junglerice); conditions: for Visual Weed Control (%) - 19 DAA ECHCO Obs: foliar; for Visual Weed Control Obs: 20 DAA
# Excerpt: (§1) Seeds or nutlets of the desired test plant species were planted in a soil matrix prepared by mixing a loam or sandy loam soil (e.g., 28.6 percent silt, 18.8 percent clay, and 52.6 percent sand, with a pH of about 5.8 and an organic matter content of about 1.8 percent) and calcareous grit in an 80 to 20 ratio. The soil matrix was contained in plastic pots with a volume of 1 quart and a surface area of 83.6 square centimeters (cm^2). When required to ensure good germination and healthy plants, a fungicide treatment and/or other chemical or physical treatment was applied. The plants were grown for 8-22 days in a greenhouse with an approximate 14 hr photoperiod which was maintained at about 29° C. during the day and 26° C. during the night. Nutrients (Peters Excel® 15-5-15 5-Ca 2-Mg and iron chelate) were applied in the irrigation solution as needed and water was added on a regular basis. Supplemental lighting was provided with overhead metal halide 1000-Watt lamps as necessary. The plants were employed for testing when they reached the first through fourth true leaf stage.
# (§2) Treatments consisted of the acid or esters of 4-amino-3-chloro-5-fluoro-6-(4-chloro-2-fluoro-3-methoxy-phenyl)pyridine-2-carboxylic acid (Compound A), each formulated as an SC (suspension concentrate), and various herbicidal components alone and in combination. Forms of compound A were applied on an acid equivalent basis.
# (§3) Other herbicidal components were applied on an active ingredient basis and included very long chain fatty acid (VLCFA) synthesis-inhibiting and fatty acid/lipid synthesis-inhibiting herbicides acetochlor (technical grade material), acetochlor+dichlormid formulated as Topnotch®, pretilachlor (technical grade material), butachlor formulated as Butachlor EC, fentrazamide formulated as Fentrazamide EC, thiobencarb formulated as Bolero® 8EC, cafenstrole formulated as Himeadow® WP or Lapost® Flowable, benfuresate formulated as Full Shot®, dimethenamid-P formulated as Outlook®, indanofan (technical grade material), flufenacet formulated as Define® DF, mefenacet (technical grade material), S-metolachlor formulated as Dual® II Magnum, pethoxamid formulated as Successor® 600, and pyroxasulfone (technical grade material).
# (§4) Treatment requirements were calculated based upon the rates being tested, the concentration of active ingredient or acid equivalent in the formulation, and a 12 mL application volume at a rate of 187 L/ha.
# (§5) For treatments comprised of formulated compounds, measured amounts of compounds were placed individually in 25 mL glass vials and diluted in a volume of 1.25% (v/v) Agri-Dex® crop oil concentrated to obtain 12× stock solutions. […] Application solutions were prepared by adding an appropriate amount of each stock solution (e.g., 1 mL) and diluted to the appropriate final concentrations with the addition of 10 mL of an aqueous mixture of 1.25% (v/v) crop oil concentrate so that the final spray solutions contained 1.25+/−0.05% (v/v) crop oil concentrate.
# (§6) For treatments comprised of technical compounds, weighed amounts can be placed individually in 25 mL glass vials and dissolved in a volume of 97:3 v/v acetone/DMSO to obtain 12× stock solutions. […] Application solutions can be prepared by adding an appropriate amount of each stock solution (e.g., 1 mL) and diluted to the appropriate final concentrations with the addition of 10 mL of an aqueous mixture of 1.5% (v/v) crop oil concentrate so that the final spray solutions contain 1.25% (v/v) crop oil concentrate. When technical materials are used, the concentrated stock solutions can be added to the spray solutions so that the final acetone and DMSO concentrations of the application solutions are […], respectively. […]
# LEFCH [1] = assay: Example II: in-water applied weed control, transplanted paddy rice, greenhouse; format: in vivo, Leptochloa chinensis (L.) Nees (Chinese sprangletop); conditions: 19 DAA
# Protocol: (§7) Weed seeds or nutlets of the desired test plant species were planted in puddled soil (mud) prepared by mixing a shredded, non-sterilized mineral soil (50.5 percent silt, 25.5 percent clay, and 24 percent sand, with a pH of about 7.6 and an organic matter content of about 2.9 percent) and water at a 1:1 volumetric ratio. The prepared mud was dispensed in 365 mL aliquots into 16-ounce (oz.) non-perforated plastic pots with a surface area of 86.59 square centimeters (cm^2) leaving a headspace of 3 centimeters (cm) in each pot. Mud was allowed to dry overnight prior to planting or transplanting. Rice seeds were planted in Sun Gro MetroMix® 306 planting mixture, which typically has a pH of 6.0 to 6.8 and an organic matter content of about 30 percent, in plastic plug trays. Seedlings at the second or third leaf stage of growth were transplanted into 840 mL of mud contained in 32-oz. non-perforated plastic pots with a surface area of 86.59 cm^2 4 days prior to herbicide application. The paddy was created by filling the headspace of the pots with 2.5 to 3 cm of water. When required to ensure good germination and healthy plants, a fungicide treatment and/or other chemical or physical treatment was applied. The plants were grown for 4-22 days in a greenhouse with an approximate 14 hr photoperiod which was maintained at about 29′C during the day and 26° C. during the night. Nutrients were added as Osmocote® (19:6:12, N:P:K+ minor nutrients) at 2 g per 16-oz. pot and 4 g per 32-oz. pot. Water was added on a regular basis to maintain the paddy flood, and supplemental lighting was provided with overhead metal halide 1000-Watt lamps as necessary. The plants were employed for testing when they reached the first through fourth true leaf stage.
# as §2, with “(compound A)” for “(Compound A),”, “concentrate)” for “concentrate),”
# (§8) The herbicidal components were applied on an active ingredient basis and included very long chain fatty acid (VLCFA) synthesis-inhibiting and fatty acid/lipid synthesis-inhibiting herbicides acetochlor (technical grade material), acetochlor+dichlormid formulateded as Topnotch®, pretilachlor (technical grade material), butachlor formulated as Butachlor EC, fentrazamide formulated as Fentrazamide EC, thiobencarb formulated as Bolero® 8EC, cafenstrole formulated as Himeadow® WP or Lapost® Flowable, benfuresate formulated as Full Shot®, anilofos (technical grade material), mefenacet (technical grade material), molinate (technical grade material), and thenylchlor (technical grade material).
# (§9) Treatment requirements for each compound or herbicidal component were calculated based upon the rates being tested, the concentration of active ingredient or acid equivalent in the formulation, an application volume of 2 mL per component per pot, and an application area of 86.59 cm^2 per pot.
# (§10) For formulated compounds, a measured amount was placed in an individual 100 or 200 mL glass vial and was dissolved in a volume of 1.25% (v/v) Agri-Dex® crop oil concentrate to obtain application solutions.
# (§11) For technical grade compounds, a weighed amount was placed in an individual 100 to 200 mL glass vial and was dissolved in a volume of acetone to obtain concentrated stock solutions. […] The concentrated stock solutions obtained were diluted with an equivalent volume of an aqueous mixture containing 2.5% (v/v) crop oil concentrate so that the final application solutions contained 1.25% (v/v) crop oil concentrate.
# (§12) Applications were made by injecting with a pipetter appropriate amounts of the application solutions, individually and sequentially, into the aqueous layer of the paddy. Control plants were treated in the same manner with the solvent blank. […]
# LEFCH [2] = assay: Example I: postemergence foliar-applied weed control, greenhouse; format: in vivo, Leptochloa chinensis (L.) Nees (Chinese sprangletop); conditions: for Visual Weed Control (%) - 19 DAA LEFCH Obs / Visual Weed Control (%) - 22 DAA LEFCH Obs: foliar; for Visual Weed Control Obs: 20 DAA
# Excerpt: as §1, §2, §3, §4, §5, §6
# CYPRO = assay: Example II: in-water applied weed control, transplanted paddy rice, greenhouse; format: in vivo, Cyperus rotundus L. (purple nutsedge)
# Protocol: as §7
# as §2, with “(compound A)” for “(Compound A),”, “concentrate)” for “concentrate),”
# as §8, §9, §10, §11, §12
# ECHCG [3] = assay: Example I: postemergence foliar-applied weed control, greenhouse; format: in vivo, Echinochloa crus-galli (L.) Beauv. (barnyardgrass); conditions: 20 DAA
# Excerpt: as §1, §2, §3, §4, §5, §6
# ECHOR = assay: Example II: in-water applied weed control, transplanted paddy rice, greenhouse; format: in vivo, Echinochloa oryzoides (Ard.) Fritsch (early watergrass)
# Protocol: as §7
# as §2, with “(compound A)” for “(Compound A),”, “concentrate)” for “concentrate),”
# as §8, §9, §10, §11, §12
# IPOHE = assay: Example I: postemergence foliar-applied weed control, greenhouse; format: in vivo, Ipomoea hederacea Jacq. (ivyleaf morningglory); conditions: 20 DAA
# Excerpt: as §1, §2, §3, §4, §5, §6
# BRAPP = assay: Example I: postemergence foliar-applied weed control, direct seeded rice weeds, greenhouse; format: in vivo; conditions: for Visual Weed Control Obs: 20 DAA; for Visual Weed Control (%) - 22 DAA BRAPP Obs: foliar
# Excerpt: as §1, §2, §3, §4, §5, §6
# ECHCG [4] = assay: Example II: in-water applied weed control, transplanted paddy rice, greenhouse; format: in vivo, Echinochloa crus-galli (L.) Beauv. (barnyardgrass)
# Protocol: as §7
# as §2, with “(compound A)” for “(Compound A),”, “concentrate)” for “concentrate),”
# as §8, §9, §10, §11, §12
# CYPIR = assay: Example I: postemergence foliar-applied weed control, greenhouse; format: in vivo, Cyperus iria L. (rice flatsedge); conditions: foliar
# Excerpt: as §1, §2, §3, §4, §5, §6
compound,measurement,setting,value
"CCC1(CC2(c3cccc(Cl)c3)CO2)C(=O)c2ccccc2C1=O (racemic) [Indanofan, (RS)-2-[[2-(3-chlorophenyl)oxiranyl]methyl]-2-ethyl-1H-indene-1,3(2H)-dione]",Visual Weed Control (%) - 19 DAA ECHCO Obs,ECHCO; 37.5 gai/ha,0%
same,Visual Weed Control (%) - 19 DAA ECHCO Obs,ECHCO; 75 gai/ha,0%
same,Visual Weed Control (%) - 19 DAA ECHCO Obs,ECHCO; 150 gai/ha,35%
same,Visual Weed Control LEFCH Obs,LEFCH [1]; 37.5 gai/ha,10%
same,Visual Weed Control LEFCH Obs,LEFCH [1]; 75 gai/ha,20%
same,Visual Weed Control LEFCH Obs,LEFCH [1]; 150 gai/ha,95%
same,Visual Weed Control (%) - 19 DAA LEFCH Obs,LEFCH [2]; 37.5 gai/ha,0%
same,Visual Weed Control (%) - 19 DAA LEFCH Obs,LEFCH [2]; 75 gai/ha,0%
"CCCCOCN(C(=O)CCl)c1c(CC)cccc1CC [Butachlor, N-(butoxymethyl)-2-chloro-N-(2,6-diethylphenyl)acetamide]",Visual Weed Control Obs,ECHCO; 112.5 gai/ha,0%
same,Visual Weed Control Obs,ECHCO; 225 gai/ha,0%
same,Visual Weed Control Obs,ECHCO; 450 gai/ha,0%
same,Visual Weed Control (%) - 21 DAA CYPRO Obs,CYPRO; 225 gai/ha,0%
same,Visual Weed Control (%) - 21 DAA CYPRO Obs,CYPRO; 450 gai/ha,0%
same,Visual Weed Control Obs,ECHCG [3]; 112.5 gai/ha,0%
same,Visual Weed Control Obs,ECHCG [3]; 225 gai/ha,0%
same,Visual Weed Control Obs,ECHCG [3]; 450 gai/ha,0%
same,Visual Weed Control (%) - 21 DAA ECHOR Obs,ECHOR; 225 gai/ha,0%
same,Visual Weed Control (%) - 21 DAA ECHOR Obs,ECHOR; 450 gai/ha,20%
same,Visual Weed Control Obs,LEFCH [2]; 112.5 gai/ha,0%
same,Visual Weed Control Obs,LEFCH [2]; 225 gai/ha,0%
same,Visual Weed Control Obs,LEFCH [2]; 450 gai/ha,0%
same,Visual Weed Control Obs,IPOHE; 112.5 gai/ha,20%
same,Visual Weed Control Obs,IPOHE; 450 gai/ha,30%
same,Visual Weed Control Obs,BRAPP; 112.5 gai/ha,0%
same,Visual Weed Control Obs,BRAPP; 225 gai/ha,0%
same,Visual Weed Control Obs,BRAPP; 450 gai/ha,0%
same,Visual Weed Control (%) - 21 DAA ECHCG Obs,ECHCG [4]; 225 gai/ha,40%
same,Visual Weed Control (%) - 21 DAA ECHCG Obs,ECHCG [4]; 450 gai/ha,20%
"CN(C(=O)COc1nc2ccccc2s1)c1ccccc1 [Mefenacet, 2-(2-benzothiazolyloxy)-N-methyl-N-phenylacetamide]",pest or weed control at 300 g/ha,"ECHOR; Echinochloa oryzoides, 504 h, 300 gai/ha, 21 DAA, read-out: Visual Weed Control ECHOR Obs",80%
same,pest or weed control at 600 g/ha,"ECHOR; Echinochloa oryzoides, 504 h, 600 gai/ha, 21 DAA, read-out: Visual Weed Control ECHOR Obs",100%
same,pest or weed control at 1200 g/ha,"ECHOR; Echinochloa oryzoides, 504 h, 1200 gai/ha, 21 DAA, read-out: Visual Weed Control ECHOR Obs",100%
same,Visual Weed Control (%) - 22 DAA LEFCH Obs,LEFCH [2]; 50 gai/ha,10%
same,Visual Weed Control (%) - 22 DAA LEFCH Obs,LEFCH [2]; 100 gai/ha,0%
same,Visual Weed Control (%) - 22 DAA BRAPP Obs,BRAPP; 50 gai/ha,0%
same,Visual Weed Control (%) - 22 DAA BRAPP Obs,BRAPP; 100 gai/ha,0%
same,Visual Weed Control (%) - 22 DAA BRAPP Obs,BRAPP; 200 gai/ha,0%
same,Visual Weed Control (%) - 22 DAA CYPIR Obs,CYPIR; 100 gai/ha,0%
same,Visual Weed Control (%) - 22 DAA CYPIR Obs,CYPIR; 200 gai/ha,20%
